Data from patent US20250296961A1, “ANTIMICROBIAL PEPTIDES FOR REMINERALIZATION OF TEETH AND PREVENTION OF DENTAL CARIES” (The University of Hong Kong, priority 2021, published 2025).
Read-outs that look alike come from different tables or passages of the source.

Experiments:
[1] = Adsorption capacity assay: peptides with HA particles (Micro BCA); format: binding
Experimental: The adsorption of P-113, P-113-DPS, P-113-DA, and P-113-SK to HA particles (Sigma Chemical Co., St Louis, USA) was measured using the Micro BCA method with Sp-H5 as the control group. Solutions of P-113, P-113-DPS, P-113-DA, P-113-SK and Sp-H5 in 10 mM HEPES buffer (pH 7) were diluted to 10 nmol/mL concentrations, and 200 μL was placed into each tube (P-113, N=10; P-113-DPS, N=10; P-113-DA, N=10; P-113-SK, N=10; and Sp-H5, N=10). Peptide solutions were mixed with (n=5) or without (n=5) HA particles (20 mg/tube) in each group. Tubes were placed onto a rotator overnight at 37° C. for complete reaction. Tubes containing the peptide solution and HA were centrifuged (13000 rpm, 1 min) and the supernatant collected. Bovine serum albumin (BSA) standard solutions (working range=5-250 μg/mL) and working reagent were prepared using the Pierce BCA Protein Assay Kit (Rockford, IL, USA). Working reagents (100 μL/well) were added to a 96-well plate, followed by standard and peptide solutions (100 μL/well). The Plate was incubated in the dark for 30 min and the absorbance (562 nm) measured using a plate reader. The concentration (C) of the BSA standard solution was linear with the absorbance (A) at 562 nm. The function of C=a*A+b was determined (a and b as constants). The final concentration (the peptide solution mixed with HA) and the initial concentration (the peptide solution without HA) were computed using the function and the generated absorbance data of the peptide solution mixed with and without HA.

[2] = test system: S. mutans; experiment: Anti-planktonic bacterial ability, MIC and MBC (Example 1); format: cell-based, Streptococcus mutans (ATCC 35668)
Experimental: (§1) Streptococcus mutans (ATCC 35668, ATCC, Manassas, USA) were cultured in Horse Blood Medium under anaerobic (85% N2, 10% H2, and 5% CO2) conditions at 37° C. Cells were harvested by centrifugation (5000 rpm, 10 min), washed once with 10 mM sodium phosphate-buffered saline (PBS, pH 7.2), and resuspended in brain-heart infusion broth (BHI, Difco Laboratories, Detroit, USA) at a concentration of 10^6 CFU/mL.
Two-fold serial dilutions (in 10 mM HEPES) of P-113, P-113-DPS, P-113-DA, P-113-SK, and Sp-H5 prepared in 25% BHI medium were pipetted into a 96-well cell culture plate at final concentrations from 0.125-128 μmol/mL [100 μL/well]. Each well was seeded with 10 μL bacterial suspension at a final concentration of 10^6 CFU/mL. Sp-H5 with bacterial cells and 25% BHI medium with and without bacterial cells in 10 mM HEPES buffer (pH 7) were used as the positive, negative, and blank control group, respectively. After a 24-h incubation, absorbance was measured at 595 nm using a microplate reader to assess cell growth. […] The minimal bactericidal concentration (MBC) was defined as the lowest concentration of peptide resulting in no colony formation on agar plates after incubation. 10 μL of cell suspension from each well were plated on horse blood agar plates and incubated at 37° C. for 48 h. All determinations were conducted in triplicate experiments.

[3] = test system: S. mutans biofilms; format: cell-based
Experimental: as §1
S. mutans biofilms were cultured on enamel working surfaces in a 96-well plate. Tooth slices (N=32) were autoclave-sterilized prior to anti-biofilm activity testing. 200 μL S. mutans in BHI (10^6 CFU/mL) was added to each well. After a 24-h incubation at 37° C., each tooth slice was washed once with PBS. […] (in 10 mM HEPES). After incubation, tooth slices were washed once with PBS. One tooth slice at random in each group was stained with the LIVE/DEAD BacLight Bacterial Viability Kit (L7012, Thermo Fisher Scientific, Waltham, USA) and incubated in the dark for 30 min. Fluorescence images were obtained using confocal laser scanning microscopy (CLSM, Fluoview 1000, Olympus, USA). A separate tooth slice was used for the counting of colony-forming units (CFU). Tooth slices were placed in 1 mL BHI solution, and adherent biofilms were removed from the enamel surfaces by sonication for 30 sec. Ten-fold serial dilutions of the suspensions were plated in duplicate on horse blood agar. CFU's were counted after 48-h incubation. Three independent biofilm experiments were performed.

[4] = test system: S. mutans; experiment: Anti-planktonic bacterial ability, MBC (Example 2); format: cell-based, S. mutans (ATCC 35668)
Experimental: (§2) S. mutans (ATCC 35668, ATCC, Manassas, USA), S. gordonii (ATCC 35105, ATCC, Manassas, USA), and S. sanguinis (ATCC 10556, ATCC, Manassas, USA) strains were cultured in brain-heart infusion broth (BHI, Difco Laboratories, Detroit, USA) at 37° C. under anaerobic conditions (85% N2, 10% H2, and 5% CO2). Bacteria were harvested by centrifugation (5000 rpm, 10 min), washed once with sodium phosphate-buffered saline (PBS, 10 mM, pH=7.2), and resuspended in BHI at a concentration of 1×10^6 CFU mL^−1.
(§3) Each well was seeded with 10 μL S. mutans suspension, S. gordonii suspension, and S. sanguinis suspension, respectively. […] The bacterial growth was assessed by measuring the absorbance at 595 nm using a microplate reader after a 24-hour incubation. Subsequently, 10 μL of bacterial suspension from each well were plated on horse blood agar plates and incubated at 37° C. for 48 h. The antibacterial activities of AMPs were evaluated.

[5] = test system: S. gordonii; experiment: Anti-planktonic bacterial ability, MBC (Example 2); format: cell-based, S. gordonii (ATCC 35105)
Experimental: as §2, §3

[6] = test system: S. sanguinis; experiment: Anti-planktonic bacterial ability, MBC (Example 2); format: cell-based, S. sanguinis (ATCC 10556)
Experimental: as §2, §3

For “AKRHHGYKRKFH [Peptide P-113, non-specific AMP, portion of human histatin 5]”, the “Concentration change (95% CI)” value ([1]; initial vs final concentration with HA particles) was 0.29 (−0.01-0.61), the “Final concentration (Mean ± SD)” value ([1]; peptide solution mixed with HA particles (20 mg/tube), overnight 37° C.) was 9.86 ± 0.23 nM mL^−1 and the MBC [2] was greater than 128 μM mL^−1. For the same sequence, the MIC ([2]; 24 h) was 32 μM mL^−1, the “S. mutans killed (biofilm)” value ([3]; 128 μmol/mL, 24 h exposure) was 79% and the “S. mutans killed (biofilm)” value ([3]; 160 μmol/mL) was 87%. For the same sequence, the “CLSM live/dead state of S. mutans biofilm” value ([3]; 24 h, concentration not given) was “the majority of S. mutans in BHI and P-113 were alive”, the “MBC, S. mutans” value [4] was greater than 128 μM mL^−1 and the “MBC, S. gordonii” value [5] was greater than 128 μM mL^−1. The “MBC, S. sanguinis” value [6] was greater than 128 μM mL^−1.
